Experimental data: patent publication US8637038B2, “Methods for inhibiting allograft rejection” (Rigel Pharmaceuticals, Inc., priority 2011, dated 2014)

Columns and labels:
[1] = test system: Lew recipients of heterotopic BN heart transplants; experiment: Five-day heart allograft study: H+E histology, ISHLT rejection classification; assay type: in vivo, rat; settings: HD (Compound I 60 mg/kg BID, Compound III 20 mg/kg BID, Tac 4 mg/kg QD); five days after transplantation
Source text: Male Brown Norway (BN) and Lewis (Lew) rats weighing 350 g were purchased from Harlan (Indianapolis, Ind.) and were housed under conventional conditions. All animals were fed standard rat chow and water ad libitum and received humane care in compliance with the Principles of Laboratory Animal Care formulated by the National Society for Medical Research and the Guide for the care and Use of Laboratory Animals published by the National Institutes of Health (National Institutes of Health publication No. 85-23, revised 1985). Allogeneic (BN-to-Lew) and syngeneic (Lew-to-Lew) heterotopic heart transplantations were performed as described previously (Ono et al., J. Thorac. Cardiovasc. Surg. 57:225-229, 1969). In brief, rats were anaesthetized using 2% isoflurane. The donor received an intravenous bolus of 500 I.U. heparin. Cardiac arrest was achieved using 20 ml Bretschneider solution (Custodiol, Dr. F. Koehler Chemie, Bensheim, Germany). […] Heart-beating score was assessed directly after transplantation for each animal from score 0 (no palpable contraction) to 4 (strong and regular contraction). Only animals with beating scores of 4 were included into the study. Compound I and Compound III were provided by Rigel (South San Francisco, Calif.) and Tacrolimus was provided by Astellas (Munich, Germany). All drugs were administrated orally each in two different concentrations: Compound I LD (15 mg/kg BID; n=6) and HD (60 mg/kg BID; n=6); […] Administration of all drugs was performed every day at the same time points. Tacrolimus was applied only once a day (QD) every 24 hours. During administration of Compound I (BID) and Compound III (BID) a 12 hour pause was kept in between each drug application. Lew recipients of heterotopic BN heart transplants were randomly assigned to their group. […] An untreated syngeneic transplant group Lew-Lew was generated as control. Grafts were recovered five days after transplantation and fixed in 4% paraformaldehyde (Science Services, Munich, Germany), dehydrated and embedded in paraffin. […] Waldeck, Carl Roth GmbH, Munster, Germany) and examined by standard light microscopy. The extent of acute cardiac graft rejection in H+E staining was examined by an experienced pathologist according to the 2004 ISHLT working formulation (Stewart et al., J. Heart Lung Transplant. 24:1710-1720, 2005).

[2] = In vivo pharmacokinetics, plasma levels by LC/MS/MS; parameters: species or system Lewis rats; settings: for time of peak plasma level after administration: male Lewis rats
Method: Male Lewis rats were orally administered at dosages of Compound I HD (60 mg/kg/BID); Compound I LD (15 mg/kg/BID); Compound III HD (20 mg/kg/BID), and Compound III LD (5 mg/kg/BID), respectively. Plasma levels of drugs were quantified 0.5, 1, 1.5, 2, 3, 4, 6, 8, and 10 hours after administration. Plasma levels of Compound I and Compound III were quantified by LC/MS/MS.
Pharmacokinetics were performed in male Lewis rats. Plasma levels were measured within a 10 hour period. Resulting plasma concentrations of Compound I HD (60 mg/kg BID), Compound I LD (15 mg/kg BID), Compound III HD (20 mg/kg BID), and Compound III LD (5 mg/kg BID) are depicted in FIG. 1. Compound I HD and Compound I LD plasma levels peaked 1.5-2 hours after administration. Compound III HD plasma levels peaked after 3-3.5 hours and Compound III LD levels 2 hours after administration.

[3] = Five-day heart allograft study: side effects (clinical chemistry); assay type: in vivo, rat; settings: five days
Method: Compound I and Compound III were provided by Rigel (South San Francisco, Calif.) and Tacrolimus was provided by Astellas (Munich, Germany). All drugs were administrated orally each in two different concentrations: Compound I LD (15 mg/kg BID; n=6) and HD (60 mg/kg BID; n=6); Compound III LD (5 mg/kg BID; n=6) and HD (20 mg/kg BID; n=6); Tac LD (1 mg/kg QD; n=6) and HD (4 mg/kg QD; n=6). Administration of all drugs was performed every day at the same time points. Tacrolimus was applied only once a day (QD) every 24 hours. During administration of Compound I (BID) and Compound III (BID) a 12 hour pause was kept in between each drug application.
Lew recipients of heterotopic BN heart transplants were randomly assigned to their group. Animals were either left untreated (groups 1 and 2; see Table 1,5-day study) or received their group specific medication (groups 3-8; see Table 1,5-day study) by oral application. An untreated syngeneic transplant group Lew-Lew was generated as control.
EDTA samples and sera were taken five days after transplantation for differential blood count, BUN, Creatinine, Cholesterol, HDL, LDL, Triglycerides, AST, and ALT, respectively. Analyses were performed by standard clinical chemistry procedures.

[4] = HD oral: Compound I 60 mg/kg BID, Compound III 20 mg/kg BID
[5] = LD oral: Compound I 15 mg/kg BID, Compound III 5 mg/kg BID

COc1cc(Nc2ncc(C)c(Nc3ccc4oc(=O)[nH]c4c3)n2)cc(C)c1F [Compound I, 5-(2-(4-fluoro-3-methoxy-5-methylphenylamino)-5-methylpyrimidin-4-ylamino)benzo[d]oxazol-2(3H)-one]
hearts with ISHLT score of 0 [1]: 17%
hearts with ISHLT score of 1 [1]: 50%
hearts with ISHLT score of 2 [1]: 17%
hearts with ISHLT score of 3 [1]: 17%
time of peak plasma level after administration [2, 4]: 1.5 to 2 h
time of peak plasma level after administration [2, 5]: 1.5 to 2 h

COc1cc(Nc2ncc(C)c(Nc3ccc4oc(=O)[nH]c4c3)n2)cc(C)c1C [Compound III, 5-(2-(3-methoxy-4,5-dimethylphenylamino)-5-methylpyrimidin-4-ylamino)benzol[d]oxazol-2-(3H)-one]
serum HDL, mean ([3]; HD (Compound I 60 mg/kg BID, Compound III 20 mg/kg BID, Tac 4 mg/kg QD), no medication mean 26.0): 46.3 mg/dL
serum LDL, mean ([3]; LD (Compound III 5 mg/kg BID, Tac 1 mg/kg QD)): 19.6 mg/dL
hearts with ISHLT score of 0 [1]: 33%
hearts with ISHLT score of 1 [1]: 50%
hearts with ISHLT score of 2 [1]: 17%
hearts with ISHLT score of 3 [1]: no scores of 3
AUC of HD group relative to LD group ([2]; Compound I 60 vs 15 mg/kg BID, Compound III 20 vs 5 mg/kg BID, 10 hour period): > 22 fold
time of peak plasma level after administration [2, 4]: 3 to 3.5 h
time of peak plasma level after administration [2, 5]: 2 h
